Assay results as given in US20220125877A1, “METHOD FOR TREATING COLORECTAL CANCER” (SUN YAT-SEN UNIVERSITY, priority 2019, published 2022).

How the values were obtained:
Format in all cases: cell-based, human
[1] = tested on: KRAS mutation CRC cells LoVo; test: Cell viability (CCK-8 method)
Method: (§1) The cells were inoculated on a plate according to the concentration of 5000 cells/well (48-well plate, 200 μl per well). The cells were treated with different ways according to the experimental requirements, and 10 μl CCK8 solution was added after a period of time. The cells were incubated for 1 h in an incubator; 200 μl supernatant were absorbed into a 96-well ELISA plate to determine OD450 with a microplate reader.
(§2) (2) Metformin with a gradient concentration was used in vitro to treat KRAS wildtype colorectal cancer cell lines SW48 and CaCO2, KRAS G13D-mutation colorectal cancer cell lines HCT-116 and LoVo, as well as KRAS G12V-mutation colorectal cancer cell lines SW480 and SW620. In addition, the metformin with a gradient concentration was used to treat the KRAS wildtype colorectal cancer cell line SW48 transfected with KRAS G12V, KRAS G13D and KRAS G12D plasmids.
(§3) 5 μM and 10 μM lansoprazole were used to treat HCT-116 and LoVo simultaneously; metformin was used to treat the cells at the same time for 48 h; the cell viability was detected by CCK8.

[2] = tested on: KRAS mutation CRC cells HCT-116; test: Cell viability (CCK-8 method)
Method: as §1, §2, §3

[3] = tested on: ERK, RB, MPK, AKT, mTOR and 4E-BP1 phosphorylation in SW48; test: Western blot of MEK/ERK/cyclin D1/RB and PI3K/AKT/mTOR/4E-BP1 signaling; settings: 24 h, FIGS. 9A-C
Method: Western blot was used to detect the change of metformin on the related molecules of sroliferative signaling pathways MEK/ERK/cyclin D1/RB and PI3K/AKT/mTOR/4E-BP1, which clarifies the mechanism of metformin in inhibiting the proliferation of KRAS mutation CRC cells.
1) Cells were inoculated on a culture dish and cultured to 60% of fusion degree, and treated with the addition of an agent for 24 h.
2) Protein was collected, and washed with PBS for 3 times, then added with 100 μl 1 RSDS buffer solution (100 mmol/1 Tris-Cl pH6.8, 2% SDS, 10% glycerinum), and at this time, the cell lysis solution was sticky.
3) The cell lysis solution was collected into a 0.5 ml centrifugal tube with a scraper, and cooked for 30 min at 100° C.
4) The total protein extractive in the cells was subjected to protein quantification according to a BCA kit process (BIO-RAD company).
5) The sample was treated according to a ratio of 9 μl denatured protein sample: 1 μl denatured buffer solution (β-mercaptoethanol (BME), 0.4% Bromphenol Blue), and boiled for 30 min at 100° C. for further use.
6) A prepared SDS-PAGE gel (10% separation gel and 5% stacking gel) was taken; samples were added with 40 ug/well, and subjected gel electrophoresis for 30 min at 80V, and gel electrophoresis for 90 min at 120V. […]

[4] = tested on: KRAS mutation CRC cells LoVo; test: Plate clone formation; settings: FIGS. 8A-B
Method: (§4) 1) Cell inoculation: the culture solution was absorbed and discarded to collect the cells, then the cells were suspended in a treatment condition culture solution, and counted for 3 times to obtain a mean value, then the concentration of a cell suspension was adjusted to 1×10^3/ml. 2.5 ml treatment condition culture solution was respectively added to per well of a 6-well culture plate; 0.5 ml cell suspension (namely, 500 cells per well) was added per well with a final volume of 3 ml. Note that the culture plate was shaken repeatedly according to a cross-shaped direction during inoculation, such that the cells were distributed evenly as much as possible.
(§5) 3) Clone staining: the culture was stopped when the cells formed visible clones (the number of cloned cells per well was about 50-150) by the naked eyes. The culture medium was discarded, and the clones were soaked and washed for twice with PBS carefully, 1.5 ml 4% paraformaldehyde was respectively added per well for immobilization for 15 min; then the immobilization solution was discarded, and the clones were cleaned with running water slowly; 1.5 ml crystal violet working solution was added per well, standing at room temperature, and the clones were stained for 30 min, and the staining solution was cleaned with running water slowly, then the remaining clones were dried in a draught cupboard. […]

[5] = tested on: KRAS wildtype CRC cells SW48; test: Plate clone formation; settings: FIGS. 8A-B
Method: as §4, §5

[6] = tested on: LoVo cell line with knock-down KRAS protein; test: Cell viability in KRAS knock-down cells; settings: relative to LoVo, FIG. 8D
Method: 2) LoVo cells were subcultured to a 6-well plate (about 1×10^5/well), when cells were subjected to adherence growth, and the degree of cell fusion was not greater than 50%, fresh culture solution was replaced ahead of 2 h, and 10 μg/mL lentivirus infection enhancer polybrene was added. Multiplicity of Infection (MOI) of LoVo was about 20; lentivirus was added according to the formula: adding amount of lentivirus per well (μl)=MOI×cell population/titer (TU/ml)×1000. The culture solution was replaced after 16-18 h, and 1 μM puromycin was conventionally added for screening the cell line whose RNA stable expression was interfered by KRAS.

[7] = tested on: KRAS mutation CRC cells LoVo; test: Proliferation detection (Edu method); settings: FIGS. 8A-B
Method: Edu was used to detect the ratio of proliferative cells, a plate clone formation experiment and PI/Rnase simple staining were used to detect the distribution of cell cycles, thus making the effect of metformin on the proliferation of CRC cells clear.
1) Cell treatment by Edu: cells were cultured in a culture dish (covered with a sterilized cover glass), and subjected adherence growth for 12 h, and starvation treatment over the night, and treated with the addition of an agent for the corresponding time, and then added with EdU (final concentration: 10 μM) at the last 2-6 h (EdU treatment time was determined according to the cell growth rate).
2) Immobilization: 4% paraformaldehyde was added according to 1 mL/well to immobilize the cells for 15 min at room temperature.
3) Slide washing: 3% BSA (dissolved by PBS) was used according to 1 mL/well for washing for twice.
4) Rupture of membrane: the cells were treated by 0.5% TritonX-100 according to 1 mL/well for 20 min at room temperature.
5) Slide washing: the same as the step 3).
6) Addition of a ClickiT reaction mixture: the reaction mixture was added per […] in the dark for 30 min at room temperature. […]
11) The slide was observed under a full-automatic positive fluorescence microscope to analyze the result, and shoot and recorded (100×, 200×, 400×, the original image was kept).

[8] = tested on: LoVo cell line with knock-down KRAS, TET1/2 interfered; test: Proliferation with TET1/2 interfered; settings: MATE1 down-regulated once again, FIG. 16G
[9] = with 5 μM and 10 μM lansoprazole, 48 h, FIGS. 11A-B

CN(C)C(=N)N=C(N)N [metformin]
IC50 ([1]; Homo sapiens, LoVo, CCK8, FIG. 10): 8.18 mM | increase of IC50 of metformin after lansoprazole [1, 9]: 1.2-2.5 times | IC50 ([2]; Homo sapiens, HCT-116, CCK8, FIG. 10): 23.7 mM | increase of IC50 of metformin after lansoprazole [2, 9]: 1.2-2.5 times | phosphorylation levels in ERK, RB, MPK, AKT, mTOR and 4E-BP1 [3]: no obvious change | clone formation [4]: inhibits the clone formation | clone formation [5]: no obvious effect | inhibiting effect on cell viability after interference of KRAS (G13D) expression [6]: down-regulate the inhibiting effect | ratio of proliferating-phase cells (EdU positive) [7]: decreases | inhibiting effect on proliferation of tumor cells with TET1/2 interfered [8]: accelerating the inhibiting effect
